Data on 3 compounds can be found in patent US20260306579A1, “COMPOSITIONS AND METHODS FOR TREATMENT OF SEPTIC SHOCK” (PEROXITECH THERAPEUTICS, INC., priority 2023, published 2026).

Entries after “also recorded” stand apart in the source; their conditions may differ. Peptide text beside a SMILES is read from it.

One data set has as its system Prdx6. The settings on record: role: inhibitor; background statement; cited from earlier work.
Another data set relates to ALI in mice. The settings on record: variety of mouse models of ALI; cited from earlier work.
For another data set, the system named is pancreatic PLA2. Conditions: role: inhibitor; background statement; cited from earlier work.
For data set [1], the system named is LPS-induced sepsis in pigs. The data set can be described thus: Adverse effects in the LPS-induced ALI model in pigs / tolerability statements. Details: species or system Yorkshire pigs (Sus scrofa domesticus). The settings on record: pig, in vivo; listed as PIP-2. On the procedure:
Prior to start of the experiment, the battery of systemic, cardiovascular, and pulmonary tests was carried out. These are called baseline measurements. Pigs were infused IV (zero time) with: Group 1, liposomes alone, no LPS (control, n=2); Group 2, LPS+liposomes (ALI untreated, n=6); and Group 3, LPS+PIP-2 in liposomes (ALI treated, n=12). Technical personnel responsible for animal care were “blinded” to the treatment conditions. LPS was given as an IV infusion of 50 ug/kg body weight over the first hour of the experiment. […] Either liposomes alone (Group 2) or PIP-2 in liposomes (Group 3) was infused as a “slow” bolus at the end of the LPS infusion. Liposomes were given at 2.22 mg/kg body weight. PIP-2 was given at 20 mg/kg body weight. Based on the measured encapsulation efficiency of ~15-20%, the IV administered PIP-2 was ~3-4 mg/kg body weight in liposomes and the remainder was in aqueous solution; presumably, the encapsulated PIP-2 was internalized by cells while the unencapsulated PIP-2 remained extracellular.

For data set [2] the following is noted: discussion statement, no data shown; cited from earlier work.

On to `CCCCCCCCCCCCCCCCOCC(COCC(F)(F)F)OP(=O)(O)OC` (stereo not drawn) [MJ33], for which the “inhibition of aiPLA2 / PLA2 activity of Prdx6 (in words)” value with Prdx6 was “bind to Prdx6 preventing aiPLA2 activity”. The “effect on lung injury in mouse ALI models (in words)” value in the data set with ALI in mice is listed as “can significantly ameliorate lung injury; also recorded: markedly protective effect against lung injury”. Further, the “inhibition of other PLA2 enzymes (in words)” value with pancreatic PLA2 is “inhibits various PLA2 enzymes such as pancreatic PLA2”.
Turning to `CC[C@H](C)[C@H](NC(=O)[C@H](CCC(N)=O)NC(=O)[C@H](Cc1c[nH]cn1)NC(=O)[C@H](CCCNC(=N)N)NC(=O)[C@H](Cc1ccccc1)NC(=O)[C@H](CC(=O)O)NC(=O)[C@H](Cc1c[nH]cn1)NC(=O)[C@@H](N)CC(C)C)C(=O)N[C@@H](CC(C)C)C(=O)O` [SEQ ID NO: 2] (H-LHDFRHQIL-OH), the “adverse side-effects / toxicity (in words)” value in data set [1] was “no evidence of adverse side-effects; also recorded: non-toxic”. Moreover, in data set [2], the “tissue half-life (in words)” value is on record as “relatively favorable tissue half-life”.
On to “SP-A: surfactant protein A (SP-A), 246 amino acids of human SP-A”, for which the “inhibition of aiPLA2 / PLA2 activity of Prdx6 (in words)” value with Prdx6 was “bind to Prdx6 preventing aiPLA2 activity; also recorded: binds to Prdx6 and inhibits its aiPLA2 activity”.
